# Reference: patent US20220062205A1, “TREATMENT OF GASTROINTESTINAL DISORDERS AND SYMPTOMS THEREOF” (Indiana University Research and Technology Corporation, priority 2018, published 2022)
# System: Winnie mice
# Experiment: Intestinal permeability: FABP1 ELISA in blood sera
# Format: in vivo, mouse
# Conditions: day 14; mean±SEM, n=5
# Procedure: The small molecular APE1/Ref-1 antagonist; APX3330, was administered via IP injections in Winnie mice at a dose of 25 mg/kg (30 G needle, max volume 200 μl) dissolved in Cremphore (2%) (Sigma-Aldrich): Ethanol (2%) in sterile water (96%). Mice received alternating IP injections twice a day with 12-hour intervals, over the course of two weeks during predominate intestinal inflammation. Winnie-sham treated mice received vehicle injections excluding APX3330 drugs. All mice were monitored, weighed and faecal pellets were collected over the course of treatment. On day 14, mice were subjected to an overdose of lethobarb (1:16 dilution, 30 G, 100 μl/20 g) IP injections for blood collections prior to harvesting colon tissues. Puncture allowed for a minimal collection of 600 μl of blood via a 26 G needle. Blood was kept on ice for 2 hours, centrifuged at 12×G at 4° C. for 15 minutes were plasma was collected and stored at −20° C. for subsequent ELISA experiments. Quantikine ELISA (mouse/rat FABP1/L-FABP) (Abcam) measured sera levels for fatty acid binding protein (FABP)-1. All samples were repeated in duplicates for statistical value. […] Microplate reader capable of measuring absorbance at 450 nm, with the correction wavelength set at 540 nm was used to detect FABP-1 protein (ng/mL) in blood sera.
compound,measurement,value
CCCCCCCCCC(=CC1=C(C)C(=O)C(OC)=C(OC)C1=O)C(=O)O [APX3330],FABP1 in blood sera,0.6 ± 0.2 ng/mL
